According to ChEMBL document CHEMBL4610097, “Daphnane Diterpenoids from Daphne genkwa Inhibit PI3K/Akt/mTOR Signaling and Induce Cell Cycle Arrest and Apoptosis in Human Colon Cancer Cells” (J Nat Prod, 2020):
Calls of active or inactive are those of the source. The calls are words filed in the database; no cut-off is given here.

What was measured:
SW-620 [1] = assay: Induction of cell cycle arrest in human SW620 cells assessed as accumulation at S phase at 11.84 uM after 24 hrs by propidium iodide staining-based flow cytometric analysis (reference value: 23.83%); assay type: functional
SW-620 [2] = assay: Downregulation of PI3K p85 expression in human SW620 cells at 0.74 to 11.84 uM after 24 hrs by Western blot analysis; assay type: functional, cell-based
SW-620 [3] = assay: Induction of apoptosis in human SW620 cells assessed as necrotic cells at 11.84 uM after 24 hrs by annexin V/propidium iodide staining-based flow cytometric analysis (reference value: 0.30%); assay type: functional
SW-620 [4] = assay: Induction of cell cycle arrest in human SW620 cells assessed as accumulation at G0/G1 phase at 1.48 uM after 24 hrs by propidium iodide staining-based flow cytometric analysis (reference value: 56.11%); assay type: functional
SW-620 [5] = assay: Induction of apoptosis in human SW620 cells assessed as necrotic cells at 0.74 uM after 24 hrs by annexin V/propidium iodide staining-based flow cytometric analysis (reference value: 0.30%); assay type: functional
SW-620 [6] = assay: Induction of apoptosis in human SW620 cells assessed as necrotic cells at 2.96 uM after 24 hrs by annexin V/propidium iodide staining-based flow cytometric analysis (reference value: 0.30%); assay type: functional
SW-620 [7] = assay: Induction of apoptosis in human SW620 cells assessed as late apoptotic cells at 0.74 uM after 24 hrs by annexin V/propidium iodide staining-based flow cytometric analysis (reference value: 2.40%); assay type: functional
SW-620 [8] = assay: Induction of apoptosis in human SW620 cells assessed as early apoptotic cells at 5.92 uM after 24 hrs by annexin V/propidium iodide staining-based flow cytometric analysis (reference value: 0.36%); assay type: functional
SW-620 [9] = assay: Cytotoxicity against human SW620 cells after 24 hrs by MTT assay; assay type: functional, cell-based; conditions: SW-620, 24 h
SW-620 [10] = assay: Effect on mTOR expression in human SW620 cells at 0.74 to 11.84 uM after 24 hrs by Western blot analysis; assay type: cell-based; conditions: sw-620, 24 h
SW-620 [11] = assay: Induction of apoptosis in human SW620 cells assessed as viable cells at 11.84 uM after 24 hrs by annexin V/propidium iodide staining-based flow cytometric analysis (reference value: 96.9%); assay type: functional; conditions: SW-620, 24 h, read-out: Activity
[12] = Inhibition of PI3K/Akt/mTOR signalling pathway in human SW620 cells assessed as reduction in mTOR phosphorylation at 0.74 to 11.84 uM after 24 hrs by Western blot analysis; assay type: cell-based; conditions: SW-620
SW-620 [13] = assay: Induction of cell cycle arrest in human SW620 cells assessed as accumulation at S phase at 0.74 uM after 24 hrs by propidium iodide staining-based flow cytometric analysis (reference value: 23.83%); assay type: functional
SW-620 [14] = assay: Induction of apoptosis in human SW620 cells assessed as necrotic cells at 5.92 uM after 24 hrs by annexin V/propidium iodide staining-based flow cytometric analysis (reference value: 0.30%); assay type: functional
SW-620 [15] = assay: Induction of cell cycle arrest in human SW620 cells assessed as accumulation at S phase at 5.92 uM after 24 hrs by propidium iodide staining-based flow cytometric analysis (reference value: 23.83%); assay type: functional
SW-620 [16] = assay: Induction of apoptosis in human SW620 cells assessed as late apoptotic cells at 1.48 uM after 24 hrs by annexin V/propidium iodide staining-based flow cytometric analysis (reference value: 2.40%); assay type: functional
SW-620 [17] = assay: Induction of apoptosis in human SW620 cells assessed as increase in cleaved caspase-9 at 0.74 to 11.84 uM after 24 hrs by Western blot analysis; assay type: functional, cell-based
SW-620 [18] = assay: Induction of cell cycle arrest in human SW620 cells assessed as accumulation at G2/M phase at 0.74 uM after 24 hrs by propidium iodide staining-based flow cytometric analysis (reference value: 20.06%); assay type: functional
SW-620 [19] = assay: Induction of apoptosis in human SW620 cells assessed as viable cells at 1.48 uM after 24 hrs by annexin V/propidium iodide staining-based flow cytometric analysis (reference value: 96.9%); assay type: functional; conditions: SW-620, 24 h, read-out: Activity
SW-620 [20] = assay: Induction of apoptosis in human SW620 cells assessed as increase in Bax/Bcl2 ratio at 0.74 to 11.84 uM after 24 hrs by Western blot analysis; assay type: functional, cell-based
SW-620 [21] = assay: Induction of apoptosis in human SW620 cells assessed as early apoptotic cells at 11.84 uM after 24 hrs by annexin V/propidium iodide staining-based flow cytometric analysis (reference value: 0.36%); assay type: functional
SW-620 [22] = assay: Induction of apoptosis in human SW620 cells assessed as early apoptotic cells at 0.74 uM after 24 hrs by annexin V/propidium iodide staining-based flow cytometric analysis (reference value: 0.36%); assay type: functional
SW-620 [23] = assay: Induction of apoptosis in human SW620 cells assessed as early apoptotic cells at 1.48 uM after 24 hrs by annexin V/propidium iodide staining-based flow cytometric analysis (reference value: 0.36%); assay type: functional
SW-620 [24] = assay: Induction of morphological changes in human SW620 cells assessed as appearance of apoptotic bodies at 2.96 to 5.92 uM after 24 hrs by acridine orange/propidium iodide staining based microscopic analysis; assay type: functional, cell-based
SW-620 [25] = assay: Induction of apoptosis in human SW620 cells assessed as necrotic cells at 1.48 uM after 24 hrs by annexin V/propidium iodide staining-based flow cytometric analysis (reference value: 0.30%); assay type: functional
SW-620 [26] = assay: Induction of apoptosis in human SW620 cells assessed as viable cells at 2.96 uM after 24 hrs by annexin V/propidium iodide staining-based flow cytometric analysis (reference value: 96.9%); assay type: functional; conditions: SW-620, 24 h, read-out: Activity
SW-620 [27] = assay: Induction of cell cycle arrest in human SW620 cells assessed as accumulation at G2/M phase at 1.48 uM after 24 hrs by propidium iodide staining-based flow cytometric analysis (reference value: 20.06%); assay type: functional
[28] = Inhibition of PI3K/Akt/mTOR signalling pathway in human SW620 cells assessed as reduction in Akt phosphorylation at 0.74 to 11.84 uM after 24 hrs by Western blot analysis; assay type: cell-based; conditions: SW-620
SW-620 [29] = assay: Induction of apoptosis in human SW620 cells assessed as appearance of apoptotic bodies at 11.84 uM after 24 hrs by acridine orange/propidium iodide staining based microscopic analysis; assay type: functional, cell-based
SW-620 [30] = assay: Induction of cell cycle arrest in human SW620 cells assessed as accumulation at S phase at 1.48 uM after 24 hrs by propidium iodide staining-based flow cytometric analysis (reference value: 23.83%); assay type: functional
SW-620 [31] = assay: Induction of cell cycle arrest in human SW620 cells assessed as accumulation at G2/M phase at 5.92 uM after 24 hrs by propidium iodide staining-based flow cytometric analysis (reference value: 20.06%); assay type: functional
SW-620 [32] = assay: Induction of apoptosis in human SW620 cells assessed as viable cells at 5.92 uM after 24 hrs by annexin V/propidium iodide staining-based flow cytometric analysis (reference value: 96.9%); assay type: functional; conditions: SW-620, 24 h, read-out: Activity
SW-620 [33] = assay: Induction of cell cycle arrest in human SW620 cells assessed as accumulation at G0/G1 phase at 5.92 uM after 24 hrs by propidium iodide staining-based flow cytometric analysis (reference value: 56.11%); assay type: functional
SW-620 [34] = assay: Induction of apoptosis in human SW620 cells assessed as late apoptotic cells at 5.92 uM after 24 hrs by annexin V/propidium iodide staining-based flow cytometric analysis (reference value: 2.40%); assay type: functional

For `C=C(C)[C@@]12O[C@@]3(/C=C/C=C/CCCCC)O[C@@H]1[C@@H]1[C@H](O)[C@@](O)(CO)[C@@H](O)[C@]4(O)C(=O)C(C)=C[C@H]4[C@@]1(O3)[C@H](C)[C@H]2OC(=O)c1ccccc1`, the Activity (SW-620 [1]) was 9.49%, the Activity (SW-620 [2]) was “Active” and the Activity (SW-620 [3]) was 1.64%. The Activity (SW-620 [4]) was 78.73%, the Activity (SW-620 [5]) was 0.1% and the Activity (SW-620 [6]) was 0.33%. For the same molecule, the Activity (SW-620 [7]) was 15.9%, the Activity (SW-620 [8]) was 4.67% and the IC50 (SW-620 [9]) was 3000 nM. For the same molecule, the Activity (SW-620 [10]) was “Non-Toxic”, the viability at 11.84 µM (SW-620 [11]) was 1.33% and the inhibition [12] was “Active”. The Activity (SW-620 [13]) was 14.24%, the Activity (SW-620 [14]) was 0.25% and the Activity (SW-620 [15]) was 11.73%. For the same molecule, the Activity (SW-620 [16]) was 48.5%, the Activity (SW-620 [17]) was “Active” and the Activity (SW-620 [18]) was 8.83%. The viability at 1.48 µM (SW-620 [19]) was 45.4%, the Activity (SW-620 [20]) was “Active” and the Activity (SW-620 [21]) was 10.7%. The Activity (SW-620 [22]) was 3.24%, the Activity (SW-620 [23]) was 5.64% and the Activity (SW-620 [24]) was “Active”. The Activity (SW-620 [25]) was 0.43%, the viability at 2.96 µM (SW-620 [26]) was 44.1% and the Activity (SW-620 [27]) was 7.08%. For the same molecule, the inhibition [28] was “Active”, the Activity (SW-620 [29]) was “Active” and the Activity (SW-620 [30]) was 14.19%. The Activity (SW-620 [31]) was 3.52%, the viability at 5.92 µM (SW-620 [32]) was 36.6% and the Activity (SW-620 [33]) was 84.75%. For the same molecule, the Activity (SW-620 [34]) was 58.5%.
